From PMC7604503, “Cyclic peptides can engage a single binding pocket through highly divergent modes” (Proceedings of the National Academy of Sciences of the …, 2020) come the findings set out here.

As usually defined, the Kd is the equilibrium constant for the complex coming apart. Higher therefore signals lower affinity.

One test addresses T1, EP300 (Homo sapiens, UniProt Q09472).
T1 construct: purchased Eurofins DiscoverX (BROMOscan, BromoMAX)
As to the kind of experiment: BROMOscan competition binding assay (BromoMAX, Eurofins DiscoverX). Particulars: for Percent Control EP300: compound concentration 1000 nM, lower percentage control = stronger affinity.

The next test deals with T2, BRD3-BD2 (Homo sapiens, UniProt Q15059).
T2 construct: Avi tag (biotinylated); made in house; host or cells: E. coli BL21(DE3)
T2 sequence (Q15059 307-419): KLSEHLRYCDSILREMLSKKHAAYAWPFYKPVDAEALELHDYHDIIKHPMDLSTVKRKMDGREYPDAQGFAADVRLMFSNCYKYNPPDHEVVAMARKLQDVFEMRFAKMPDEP
The test is described as follows: SPR binding of peptides to immobilised biotinylated BET bromodomain. The protocol:
(§1) We next assessed the ability of each of the three lead peptides to bind BRD3-BD1. […] To assess selectivity for other BET BDs, we used SPR to determine the binding affinity of each peptide toward the remaining BDs from BRD2, BRD3, and BRD4 (Fig. 1B). […]
(§2) Peptides were synthesised as C-terminal amides using standard fluorenylmethyloxycarbonyl (Fmoc)-strategy solid-phase chemistry using a Syro I automated synthesiser (Biotage) and NovaPEG Rink Amide resin (Novabiochem). Couplings were performed with HBTU/HOBt (1:1) and 6 equivalents of each amino acid. Double couplings were performed for arginine residues.
(§3) Following the final amino acid coupling reaction, the Fmoc group was removed and resin incubated with N-(chloroacetoxy)succinimide (0.2 M in DMF, 1 h, RT). Resin was washed with DMF (5 times) and DCM (5 times) and dried in vacuo.
(§4) Linear peptides were cleaved from the resin by incubation (3 h, RT) with a trifluoroacetic acid (TFA) cleavage cocktail (TFA/2,2’-(ethylenedioxy)diethanethiol/triisopropyl silane/H2O (92.5:2.5:2.5:2.5)) before filtration, concentration in vacuo and precipitation with ice-cold diethyl ether. Crude peptides were washed with diethyl ether (5 times), dried and resuspended in DMSO. The pH was raised to >8 using triethylamine to allow cyclisation. Following incubation (1 h, RT), peptides were re-acidified with TFA for purification.
(§5) Crude peptides were purified by reverse-phase high-performance liquid chromatography using a Chromolith Prep column (Merck) on a Prominence LC-20AP system (Shimadzu) (Solvent A: 0.1% TFA in H2O, Solvent B: 0.1% TFA in acetonitrile) to >95% purity as determined by mass spectrometry (Fig. S17). Purified peptides were reconstituted in DMSO and concentrations determined from their absorbance at 280 nm in 5% DMSO using predicted extinction coefficients.
(§6) Surface plasmon resonance (SPR)
(§7) Measurements were conducted on a T200 or S200 (GE Healthcare) and data analysed using the Biacore Insight Evaluation Software. Experiments were performed at 4 °C in single cycle kinetics mode. Biotinylated BET bromodomains were immobilised on a CAP chip (GE Healthcare) with a […]
(§8) pH 7.5 was used as the running buffer. […]
For orientation: In SPR one partner is held on a chip, and binding of the other changes the refractive index at the surface.

The next test has as its target T3, BRD4-BD1 (Homo sapiens, UniProt O60885).
T3 construct: BRD4 (BD1: 42-168; BD2: 348-464); Avi tag (biotinylated); made in house; host or cells: E. coli Rosetta2(DE3)
The description is as above. How it is done:
as §1, §2, §3, §4, §5, §6, §7, §8

The target of a further test is T4, BRD4-BD2 (Homo sapiens, UniProt O60885).
T4 construct: BRD4 (BD1: 42-168; BD2: 348-464); Avi tag (biotinylated); made in house; host or cells: E. coli BL21(DE3)
Described as above. The protocol: as §1, §2, §3, §4, §5, §6, §7, §8

The target of another test is T5, BRD2-BD1 (Homo sapiens, UniProt P25440).
T5 construct: human BRD2 (BD1: 65-194; BD2: 347-455); Avi tag (biotinylated); made in house; host or cells: E. coli BL21(DE3)
T5 sequence (P25440 65-194): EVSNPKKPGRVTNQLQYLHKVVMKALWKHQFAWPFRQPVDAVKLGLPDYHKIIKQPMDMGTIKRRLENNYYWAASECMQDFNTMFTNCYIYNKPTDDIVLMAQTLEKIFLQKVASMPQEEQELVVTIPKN
The description is as above. The protocol: as §1, §2, §3, §4, §5, §6, §7, §8

Another test addresses T6, BRPF1 (Homo sapiens, UniProt P55201).
T6 construct: purchased Eurofins DiscoverX (BROMOscan, BromoMAX)
T6 sequence (P55201 1-1214): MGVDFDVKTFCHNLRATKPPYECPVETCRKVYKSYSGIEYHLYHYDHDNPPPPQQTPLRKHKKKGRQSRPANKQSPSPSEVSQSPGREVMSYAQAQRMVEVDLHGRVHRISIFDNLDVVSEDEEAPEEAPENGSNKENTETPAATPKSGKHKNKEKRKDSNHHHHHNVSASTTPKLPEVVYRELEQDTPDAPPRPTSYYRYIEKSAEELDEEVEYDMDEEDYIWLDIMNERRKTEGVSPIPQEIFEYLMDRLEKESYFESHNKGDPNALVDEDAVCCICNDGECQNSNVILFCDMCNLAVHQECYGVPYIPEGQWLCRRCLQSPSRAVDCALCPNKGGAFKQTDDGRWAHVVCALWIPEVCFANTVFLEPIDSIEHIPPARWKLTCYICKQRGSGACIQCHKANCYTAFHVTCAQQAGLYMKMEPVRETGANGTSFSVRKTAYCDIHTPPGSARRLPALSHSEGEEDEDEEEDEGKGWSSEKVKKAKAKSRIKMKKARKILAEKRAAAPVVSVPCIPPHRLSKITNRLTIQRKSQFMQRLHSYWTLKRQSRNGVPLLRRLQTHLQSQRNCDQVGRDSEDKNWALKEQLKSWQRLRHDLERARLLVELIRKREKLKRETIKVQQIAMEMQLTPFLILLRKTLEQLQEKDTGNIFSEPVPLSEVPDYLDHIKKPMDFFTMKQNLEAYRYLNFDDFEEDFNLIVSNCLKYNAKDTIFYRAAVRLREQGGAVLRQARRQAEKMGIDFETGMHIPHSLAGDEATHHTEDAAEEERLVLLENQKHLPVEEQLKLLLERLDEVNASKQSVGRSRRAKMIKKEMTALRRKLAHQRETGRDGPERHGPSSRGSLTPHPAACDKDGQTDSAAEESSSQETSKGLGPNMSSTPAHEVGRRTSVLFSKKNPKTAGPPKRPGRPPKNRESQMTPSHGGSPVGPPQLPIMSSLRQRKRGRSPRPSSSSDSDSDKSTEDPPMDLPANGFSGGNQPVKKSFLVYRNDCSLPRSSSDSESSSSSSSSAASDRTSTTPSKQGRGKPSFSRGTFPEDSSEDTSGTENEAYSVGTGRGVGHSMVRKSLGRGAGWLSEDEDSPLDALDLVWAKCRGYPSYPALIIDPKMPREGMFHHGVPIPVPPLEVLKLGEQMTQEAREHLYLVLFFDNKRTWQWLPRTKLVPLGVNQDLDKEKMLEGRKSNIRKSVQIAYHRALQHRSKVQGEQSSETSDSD
As to the kind of experiment: BROMOscan competition binding assay (BromoMAX, Eurofins DiscoverX). The following applies: for Percent Control BRPF1: compound concentration 1000 nM, lower percentage control = stronger affinity.

[1] abbreviates: gray boxed value: no reproducible signals observed at the concentrations used.
Where [2] appears, read: 4 C, geometric mean and SD of two to five measurements.

Each structure is given as a SMILES string. Where a SMILES comes first, the peptide text is derived from it. Bridges are numbered along the chain shown (N, C = ends). Where only a bound is given, the exact number is not on record here.

T1 sequence (Q09472 whole entry): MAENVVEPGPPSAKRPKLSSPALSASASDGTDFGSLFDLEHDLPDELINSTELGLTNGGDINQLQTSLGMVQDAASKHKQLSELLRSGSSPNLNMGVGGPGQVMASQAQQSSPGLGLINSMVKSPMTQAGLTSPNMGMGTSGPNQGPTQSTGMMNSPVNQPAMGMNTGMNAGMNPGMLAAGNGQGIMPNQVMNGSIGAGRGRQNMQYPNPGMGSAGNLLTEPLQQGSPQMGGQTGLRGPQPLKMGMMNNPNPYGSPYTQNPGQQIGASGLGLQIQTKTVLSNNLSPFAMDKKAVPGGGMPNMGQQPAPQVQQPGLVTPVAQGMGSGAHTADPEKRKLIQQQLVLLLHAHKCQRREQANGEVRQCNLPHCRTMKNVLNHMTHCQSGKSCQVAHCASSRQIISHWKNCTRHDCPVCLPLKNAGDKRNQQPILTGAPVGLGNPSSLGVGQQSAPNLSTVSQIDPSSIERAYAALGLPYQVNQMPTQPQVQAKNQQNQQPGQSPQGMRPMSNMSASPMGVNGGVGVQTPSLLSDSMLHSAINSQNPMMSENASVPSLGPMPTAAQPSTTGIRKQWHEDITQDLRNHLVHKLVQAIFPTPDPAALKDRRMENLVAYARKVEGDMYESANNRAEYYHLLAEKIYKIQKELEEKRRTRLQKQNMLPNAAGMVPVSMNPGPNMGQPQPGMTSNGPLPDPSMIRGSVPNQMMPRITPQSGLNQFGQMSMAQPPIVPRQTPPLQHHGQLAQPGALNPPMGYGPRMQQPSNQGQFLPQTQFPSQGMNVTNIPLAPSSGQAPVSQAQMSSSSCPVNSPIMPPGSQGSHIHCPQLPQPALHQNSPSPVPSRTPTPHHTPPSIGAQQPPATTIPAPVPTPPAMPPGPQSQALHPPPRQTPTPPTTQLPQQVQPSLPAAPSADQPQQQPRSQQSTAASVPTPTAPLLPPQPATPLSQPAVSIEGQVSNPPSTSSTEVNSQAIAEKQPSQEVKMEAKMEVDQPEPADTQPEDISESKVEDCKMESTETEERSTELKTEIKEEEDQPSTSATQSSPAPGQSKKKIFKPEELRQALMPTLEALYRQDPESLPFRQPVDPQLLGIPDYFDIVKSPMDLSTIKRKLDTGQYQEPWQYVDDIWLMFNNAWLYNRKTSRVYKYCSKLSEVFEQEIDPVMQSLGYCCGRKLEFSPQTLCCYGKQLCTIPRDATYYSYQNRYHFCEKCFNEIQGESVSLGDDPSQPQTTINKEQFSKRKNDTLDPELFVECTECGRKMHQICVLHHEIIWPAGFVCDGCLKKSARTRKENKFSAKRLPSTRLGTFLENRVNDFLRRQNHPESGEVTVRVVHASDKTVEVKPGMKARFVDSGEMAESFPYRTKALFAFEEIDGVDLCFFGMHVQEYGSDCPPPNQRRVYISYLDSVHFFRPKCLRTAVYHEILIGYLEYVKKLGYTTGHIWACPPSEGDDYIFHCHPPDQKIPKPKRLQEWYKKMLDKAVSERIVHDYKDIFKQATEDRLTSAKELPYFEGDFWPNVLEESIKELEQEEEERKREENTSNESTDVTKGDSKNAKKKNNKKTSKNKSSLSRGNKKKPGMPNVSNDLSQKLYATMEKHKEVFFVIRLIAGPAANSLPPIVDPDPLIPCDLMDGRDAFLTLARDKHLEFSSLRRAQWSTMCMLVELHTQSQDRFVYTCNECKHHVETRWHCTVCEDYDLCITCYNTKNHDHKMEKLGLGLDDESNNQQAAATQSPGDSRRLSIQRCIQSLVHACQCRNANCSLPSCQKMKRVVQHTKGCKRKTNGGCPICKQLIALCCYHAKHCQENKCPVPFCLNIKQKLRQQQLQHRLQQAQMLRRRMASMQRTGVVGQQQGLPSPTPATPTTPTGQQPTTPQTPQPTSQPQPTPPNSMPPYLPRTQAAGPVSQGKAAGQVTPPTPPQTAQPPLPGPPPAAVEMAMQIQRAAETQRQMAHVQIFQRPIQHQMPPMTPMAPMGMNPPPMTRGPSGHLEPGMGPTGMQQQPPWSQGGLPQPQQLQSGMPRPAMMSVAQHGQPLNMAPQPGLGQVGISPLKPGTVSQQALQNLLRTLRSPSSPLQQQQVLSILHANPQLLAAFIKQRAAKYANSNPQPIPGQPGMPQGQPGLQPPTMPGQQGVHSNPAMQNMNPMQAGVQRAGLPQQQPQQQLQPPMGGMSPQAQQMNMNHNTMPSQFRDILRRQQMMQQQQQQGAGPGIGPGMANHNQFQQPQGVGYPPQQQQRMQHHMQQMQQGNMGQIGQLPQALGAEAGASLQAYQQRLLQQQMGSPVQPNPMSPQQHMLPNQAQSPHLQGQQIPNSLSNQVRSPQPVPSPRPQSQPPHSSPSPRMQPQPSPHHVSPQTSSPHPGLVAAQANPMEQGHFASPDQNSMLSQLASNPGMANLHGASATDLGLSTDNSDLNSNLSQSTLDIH

In the case of `CC[C@H](C)[C@@H]1NC(=O)[C@H]([C@@H](C)O)NC(=O)[C@H](CCCCN)NC(=O)[C@H](Cc2c[nH]c3ccccc23)NC(=O)CSC[C@@H](C(N)=O)NC(=O)[C@H](CCC(N)=O)NC(=O)[C@H](CCCCNC(C)=O)NC(=O)[C@H]([C@@H](C)O)NC(=O)[C@H](CCCNC(=N)N)NC(=O)[C@H](Cc2c[nH]c3ccccc23)NC(=O)[C@H]([C@@H](C)O)NC(=O)[C@H](CCCCNC(C)=O)NC(=O)CNC(=O)[C@H](CCCCNC(C)=O)NC1=O` [3.1B] ({CH2CO}-WKTIK(Ac)GK(Ac)TWRTK(Ac)QC-NH2; thioether N-14), on EP300, the “Percent Control EP300” value was 100%. For the same molecule, the Kd was greater than 10000 nM on BRD3-BD2 (setting [1]), 0.55 ± 0.33 nM on BRD4-BD1 (setting [2]), greater than 10000 nM on BRD4-BD2 (setting [1]) and 0.27 ± 0.16 nM on BRD2-BD1 (setting [2]). For the same molecule, the “Percent Control BRPF1” value at BRPF1 is 100%.

Consider `CC[C@H](C)[C@@H]1NC(=O)[C@H](Cc2c[nH]c3ccccc23)NC(=O)[C@H](Cc2c[nH]c3ccccc23)NC(=O)CSC[C@@H](C(N)=O)NC(=O)CNC(=O)[C@H](CCCCNC(C)=O)NC(=O)[C@H](CCCCN)NC(=O)[C@H](C(C)C)NC(=O)[C@H](CCCCNC(C)=O)NC(=O)[C@@H]2CCCN2C(=O)[C@H]([C@@H](C)CC)NC1=O` [3.1C] ({CH2CO}-WWIIPK(Ac)VKK(Ac)GC-NH2; thioether N-11), for which the “Percent Control EP300” value at EP300 amounted to 100%. The Kd on BRD3-BD2 (setting [2]) was determined as 13 ± 12 nM; on BRD4-BD1 (setting [2]) it was 0.35 ± 0.1 nM; at BRD4-BD2 (setting [2]), 340 ± 350 nM; on BRD2-BD1 (setting [2]), 0.19 ± 0.04 nM. Besides, the “Percent Control BRPF1” value at BRPF1 is recorded as 100%.

In the case of `CC[C@H](C)[C@H](NC(=O)[C@H](CCCNC(=N)N)NC(=O)[C@H](CCCCNC(C)=O)NC(=O)[C@H](CCCNC(=N)N)NC(=O)[C@H](CC(C)C)NC(=O)[C@@H]1CSCC(=O)N[C@@H](Cc2c[nH]c3ccccc23)C(=O)N[C@@H](CCCCNC(C)=O)C(=O)NCC(=O)N[C@@H](Cc2ccc(O)cc2)C(=O)N[C@@H](CC(C)C)C(=O)N1)C(=O)N[C@@H](CCC(N)=O)C(=O)N[C@@H](CCCNC(=N)N)C(=O)N[C@H](C(=O)N[C@@H](Cc1ccc(O)cc1)C(=O)N[C@@H](CC(N)=O)C(N)=O)[C@@H](C)O` [4.2C] ({CH2CO}-WK(Ac)GYLCLRK(Ac)RIQRTYN-NH2; thioether N-6), the remaining binding at 1 µM at EP300 (read-out: Percent Control EP300) and at BRPF1 (read-out: Percent Control BRPF1) was 100% throughout. The Kd at BRD3-BD2 (setting [2]) was 110 ± 116 nM; at BRD4-BD1 (setting [1]), greater than 10000 nM; on BRD4-BD2 (setting [2]), 36 ± 35 nM; on BRD2-BD1 (setting [1]), greater than 10000 nM.
